Experimental data published in patent US11629171B2, “Beta-hairpin peptidomimetics” (POLYPHOR AG, priority 2017, dated 2023).
≈ marks a conversion by molar mass, not a printed value. Where a SMILES comes first, the peptide text is derived from it. Bridges are numbered along the chain shown (N, C = ends). Roman numbers before positions name the chains, in order. [ ]: non-standard residue; d: D form. Tle = CC(C)(C)[C@H](N)C(=O)O; NMeV = CN[C@H](C(=O)O)C(C)C; Hiv = CC(C)[C@H](O)C(=O)O; dDab = NCC[C@@H](N)C(=O)O; hSer = N[C@@H](CCO)C(=O)O; Orn = NCCC[C@H](N)C(=O)O; Dab = NCC[C@H](N)C(=O)O; Dap = NC[C@H](N)C(=O)O

What was measured:
Type in all cases: cell-based
[1] = test system: Acinetobacter baumannii 872842; conditions: 872842
Outline: (§1)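 Broth microdilution per CLSI; MH-II (cation-adjusted) + 0.002% P-80 final; ~10^6 CFU/mL inoculum; 2-fold peptide series; 35° C, 18-20 h; MIC = no visible growth, μg/mL.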

[2] = test system: Acinetobacter baumannii DSM 30008; conditions: DSM 30008
Outline: as §1

[3] = test system: Enterobacter cloacae 848840; conditions: 848840
Outline: as §1

Escherichia coli 926415 = conditions: 926415
Outline: as §1

[4] = test system: Escherichia coli ATCC 25922; conditions: ATCC 25922
Outline: as §1

[5] = test system: Klebsiella pneumoniae 968733; conditions: 968733
Outline: as §1

[6] = test system: Klebsiella pneumoniae SSI #3010; conditions: SSI #3010
Outline: as §1

[7] = test system: Pseudomonas aeruginosa ATCC 27853; conditions: ATCC 27853
Outline: as §1

[8] = test system: human red blood cells (hRBC); experiment: Hemolysis; conditions: red cells of human, 1 h, 200
Outline: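 Read-out is supernatant absorbance at 540 nm, normalised to full lysis by 2% Triton X-100 and zero lysis by PBS with 10% water. Peptides (200 μg/mL) were exposed to 20% v/v washed human erythrocytes at 37° C for 1 h under shaking.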

CC(=O)N[C@@H](CCN)C(=O)N[C@H](C(=O)N[C@H]1CSSC[C@@H](C(=O)N[C@@H](CO)C(=O)N[C@@H](CCC(=O)O)C(N)=O)NC(=O)[C@H](C(C)(C)C)NC(=O)[C@H](CO)NC(=O)[C@H](Cc2c[nH]c3ccccc23)NC(=O)[C@H](CCN)NC(=O)[C@@H](CCN)NC(=O)[C@H](CCC(=O)N[C@@H](CCN)C(=O)N[C@H](C(=O)N[C@@H](CN)C(=O)N[C@H]2CCNC(=O)[C@H]([C@@H](C)O)NC(=O)[C@H](CCN)NC(=O)[C@H](CCN)NC(=O)[C@H](CC(C)C)NC(=O)[C@@H](CC(C)C)NC(=O)[C@H](CCN)NC2=O)[C@@H](C)O)NC(=O)[C@H](CO)NC(=O)[C@H](Cc2ccc(O)cc2)NC1=O)C(C)C [Ex. 243] (I: Ac-[Dab]VCYSE[dDab][Dab]WS[Tle]CSE-NH2 / II: [Dab]T[Dap][Dab][Dab][dL]L[Dab][Dab]T; disulfide I:3-I:12; amide I:6-II:N; lactam II:4-II:C)
MIC [1]: 0.0625 µg/mL (≈ 0.0237 µM)
MIC [2]: 0.0625 µg/mL (≈ 0.0237 µM)
MIC [3]: 0.25 µg/mL (≈ 0.0946 µM)
MIC (Escherichia coli 926415): 0.125 µg/mL (≈ 0.0473 µM)
MIC [4]: 0.0625 µg/mL (≈ 0.0237 µM)
MIC [5]: 0.125 µg/mL (≈ 0.0473 µM)
MIC [6]: 0.0625 µg/mL (≈ 0.0237 µM)
MIC [7]: 0.25 µg/mL (≈ 0.0946 µM)
Hemolysis at 200 μg/mL [8]: <1%

CN[C@H](C(=O)N[C@H]1CSSC[C@@H](C(=O)N[C@@H](CO)C(N)=O)NC(=O)[C@H](C(C)(C)C)NC(=O)[C@H](CCO)NC(=O)[C@H](Cc2c[nH]c3ccccc23)NC(=O)[C@H](CCO)NC(=O)[C@@H](CCN)NC(=O)[C@H](CCC(=O)N[C@@H](CCN)C(=O)N[C@H](C(=O)N[C@@H](CCN)C(=O)N[C@H]2CCNC(=O)[C@H]([C@@H](C)O)NC(=O)[C@H](CCN)NC(=O)[C@H](CCN)NC(=O)[C@H](CC(C)C)NC(=O)[C@@H](CC(C)C)NC(=O)[C@H](CCN)NC2=O)[C@@H](C)O)NC(=O)[C@H](CCN)NC(=O)[C@H](Cc2ccc(O)cc2)NC1=O)C(C)C [Ex. 51] (I: H-[NMeV]CY[Dab]E[dDab][hSer]W[hSer][Tle]CS-NH2 / II: [Dab]T[Dab][Dab][Dab][dL]L[Dab][Dab]T; disulfide I:2-I:11; amide I:5-II:N; lactam II:4-II:C)
MIC [1]: 0.25 µg/mL (≈ 0.103 µM)
MIC [2]: 0.5 µg/mL (≈ 0.206 µM)
MIC [3]: 0.5 µg/mL (≈ 0.206 µM)
MIC (Escherichia coli 926415): 0.5 µg/mL (≈ 0.206 µM)
MIC [4]: 0.25 µg/mL (≈ 0.103 µM)
MIC [5]: 1 µg/mL (≈ 0.412 µM)
MIC [6]: 0.125 µg/mL (≈ 0.0515 µM)
MIC [7]: 0.125 µg/mL (≈ 0.0515 µM)
Hemolysis at 200 μg/mL [8]: <1%

CC(=O)N[C@H](C(=O)N[C@H]1CSSC[C@@H](C(=O)N[C@H](C(N)=O)[C@@H](C)O)NC(=O)[C@H](C(C)(C)C)NC(=O)[C@H](CO)NC(=O)[C@H](Cc2c[nH]c3ccccc23)NC(=O)[C@H](CO)NC(=O)[C@@H](CCN)NC(=O)[C@H](CCC(=O)N[C@@H](CCN)C(=O)N[C@H](C(=O)N[C@@H](CN)C(=O)N[C@H]2CCNC(=O)[C@H]([C@@H](C)O)NC(=O)[C@H](CCN)NC(=O)[C@H](CCN)NC(=O)[C@H]([C@@H](C)O)NC(=O)[C@@H](CC(C)C)NC(=O)[C@H](CCN)NC2=O)[C@@H](C)O)NC(=O)[C@H](CCN)NC(=O)[C@H](Cc2ccc(O)cc2)NC1=O)C(C)C [Ex. 139] (I: Ac-VCY[Dab]E[dDab]SWS[Tle]CT-NH2 / II: [Dab]T[Dap][Dab][Dab][dL]T[Dab][Dab]T; disulfide I:2-I:11; amide I:5-II:N; lactam II:4-II:C)
MIC [1]: 0.0625 µg/mL (≈ 0.0259 µM)
MIC [2]: 0.0625 µg/mL (≈ 0.0259 µM)
MIC [3]: 0.125 µg/mL (≈ 0.0518 µM)
MIC (Escherichia coli 926415): 0.125 µg/mL (≈ 0.0518 µM)
MIC [4]: 0.0625 µg/mL (≈ 0.0259 µM)
MIC [5]: 0.25 µg/mL (≈ 0.104 µM)
MIC [6]: 0.0625 µg/mL (≈ 0.0259 µM)
MIC [7]: 0.25 µg/mL (≈ 0.104 µM)
Hemolysis at 200 μg/mL [8]: 2%

CC(C)C[C@@H]1NC(=O)[C@@H](CC(C)C)NC(=O)[C@H](CCN)NC(=O)[C@@H](NC(=O)[C@H](CN)NC(=O)[C@@H](NC(=O)[C@H](CCN)NC(=O)CC[C@@H]2NC(=O)[C@H](CCN)NC(=O)[C@H](Cc3ccc(O)cc3)NC(=O)[C@@H](NC(=O)[C@@H](O)C(C)C)CCNC(=O)C[C@@H](C(=O)N[C@@H](CO)C(N)=O)NC(=O)[C@H](C(C)C)NC(=O)[C@H](CO)NC(=O)[C@H](Cc3c[nH]c4ccccc34)NC(=O)CNC(=O)[C@@H](CCN)NC2=O)[C@@H](C)O)CCNC(=O)[C@H]([C@@H](C)O)NC(=O)[C@H](CCN)NC(=O)[C@H](CCN)NC1=O [Ex. 347] (I: H-[Hiv][Dab]Y[Dab]E[dDab]GWSVDS-NH2 / II: [Dab]T[Dap][Dab][Dab][dL]L[Dab][Dab]T; lactam I:2-I:11, II:4-II:C; amide I:5-II:N)
MIC [1]: 0.25 µg/mL (≈ 0.108 µM)
Acinetobacter baumannii DSM 30008 MIC [2]: 0.125 µg/mL
MIC [3]: 0.5 µg/mL (≈ 0.215 µM)
MIC (Escherichia coli 926415): 0.25 µg/mL (≈ 0.108 µM)
Escherichia coli ATCC 25922 MIC [4]: 0.0625 µg/mL
MIC [5]: 1 µg/mL (≈ 0.431 µM)
Klebsiella pneumoniae SSI #3010 MIC [6]: 0.0625 µg/mL
Pseudomonas aeruginosa ATCC 27853 MIC [7]: 0.125 µg/mL
Hemolysis at 200 μg/mL [8]: <1%

CC(C)C[C@@H]1NC(=O)[C@@H](CC(C)C)NC(=O)[C@H](CCN)NC(=O)[C@@H](NC(=O)[C@H](CN)NC(=O)[C@@H](NC(=O)[C@H](CCN)NC(=O)CC[C@H]2NC(=O)[C@@H](CCN)NC(=O)CNC(=O)[C@H](CCN)NC(=O)[C@H](Cc3ccc(O)cc3)NC(=O)[C@@H](NC(=O)[C@@H](O)C(C)C)CSSC[C@@H](C(=O)N[C@H](C(N)=O)[C@@H](C)O)NC(=O)[C@H](C(C)(C)C)NC(=O)[C@H](CO)NC(=O)[C@H](Cc3c[nH]c4ccccc34)NC2=O)[C@@H](C)O)CCNC(=O)[C@H]([C@@H](C)O)NC(=O)[C@H](CCN)NC(=O)[C@H](CCN)NC1=O [Ex. 171] (I: H-[Hiv]CY[Dab]G[dDab][dE]WS[Tle]CT-NH2 / II: [Dab]T[Dap][Dab][Dab][dL]L[Dab][Dab]T; disulfide I:2-I:11; amide I:7-II:N; lactam II:4-II:C)
MIC [1]: 0.0625 µg/mL (≈ 0.0265 µM)
MIC [2]: 0.0625 µg/mL (≈ 0.0265 µM)
MIC [3]: 0.5 µg/mL (≈ 0.212 µM)
MIC (Escherichia coli 926415): 0.125 µg/mL (≈ 0.0531 µM)
MIC [4]: 0.125 µg/mL (≈ 0.0531 µM)
MIC [5]: 0.5 µg/mL (≈ 0.212 µM)
MIC [6]: 0.125 µg/mL (≈ 0.0531 µM)
MIC [7]: 0.25 µg/mL (≈ 0.106 µM)
Hemolysis at 200 μg/mL [8]: <1%

CN[C@H](C(=O)N[C@H]1CSSC[C@@H](C(N)=O)NC(=O)[C@H](C(C)(C)C)NC(=O)[C@H](CO)NC(=O)[C@H](Cc2c[nH]c3ccccc23)NC(=O)[C@H](CCN)NC(=O)[C@@H](CCN)NC(=O)[C@H](CCC(=O)N[C@@H](CCN)C(=O)N[C@H](C(=O)N[C@@H](CN)C(=O)N[C@H]2CCNC(=O)[C@H]([C@@H](C)O)NC(=O)[C@H](CCN)NC(=O)[C@H](CCN)NC(=O)[C@H](CC(C)C)NC(=O)[C@@H](CC(C)C)NC(=O)[C@H](CCN)NC2=O)[C@@H](C)O)NC(=O)[C@H](CN)NC(=O)[C@H](Cc2ccc(O)cc2)NC1=O)C(C)C [Example 9] (I: H-[NMeV]CY[Dap]E[dDab][Dab]WS[Tle]C-NH2 / II: [Dab]T[Dap][Dab][Dab][dL]L[Dab][Dab]T; disulfide I:2-I:11; amide I:5-II:N; lactam II:4-II:C)
MIC [1]: 0.125 µg/mL (≈ 0.0544 µM)
MIC [2]: 0.125 µg/mL (≈ 0.0544 µM)
MIC [3]: 0.25 µg/mL (≈ 0.109 µM)
MIC (Escherichia coli 926415): 1 µg/mL (≈ 0.435 µM)
MIC [4]: 0.125 µg/mL (≈ 0.0544 µM)
MIC [5]: 0.5 µg/mL (≈ 0.218 µM)
MIC [6]: 0.125 µg/mL (≈ 0.0544 µM)
MIC [7]: 0.125 µg/mL (≈ 0.0544 µM)
Hemolysis at 200 μg/mL [8]: <1%

CC(=O)N[C@@H](CC(C)C)C(=O)N[C@H]1CCCNC(=O)[C@@H]([C@H](C)O)NC(=O)[C@H](C(C)(C)C)NC(=O)[C@H](CO)NC(=O)[C@H](Cc2c[nH]c3ccccc23)NC(=O)[C@H](CCO)NC(=O)[C@@H](CCN)NC(=O)[C@H](CCC(=O)N[C@@H](CCN)C(=O)N[C@H](C(=O)N[C@@H](CN)C(=O)N[C@H]2CCNC(=O)[C@H]([C@@H](C)O)NC(=O)[C@H](CCN)NC(=O)[C@H](CCN)NC(=O)[C@H](CC(C)C)NC(=O)[C@@H](CC(C)C)NC(=O)[C@H](CCN)NC2=O)[C@@H](C)O)NC(=O)[C@H](CN)NC(=O)[C@H](Cc2ccc(O)cc2)NC1=O [Ex. 33] (I: Ac-L[Orn]Y[Dap]E[dDab][hSer]WS[Tle][dT] / II: [Dab]T[Dap][Dab][Dab][dL]L[Dab][Dab]T; lactam I:2-I:C, II:4-II:C; amide I:5-II:N)
MIC [1]: 0.0625 µg/mL (≈ 0.0268 µM)
MIC [2]: 0.0625 µg/mL (≈ 0.0268 µM)
MIC [3]: 0.125 µg/mL (≈ 0.0536 µM)
MIC (Escherichia coli 926415): 0.125 µg/mL (≈ 0.0536 µM)
MIC [4]: 0.0625 µg/mL (≈ 0.0268 µM)
MIC [5]: 0.25 µg/mL (≈ 0.107 µM)
MIC [6]: 0.125 µg/mL (≈ 0.0536 µM)
MIC [7]: 0.25 µg/mL (≈ 0.107 µM)
Hemolysis at 200 μg/mL [8]: <1%
